Patent US12077503B2, “Substituted cyclic amides and their use as herbicides” (FMC CORPORATION, priority 2015, dated 2024)

Key:
Experiment in all cases: Test C postemergence
Format in all cases: in vivo
Conditions in all cases: scale 0 to 100, 0 no effect, 100 complete control
[1] = tested on: Galium (catchweed bedstraw, Galium aparine)
Summary of the method: (§1)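 After treatment with surfactant-containing formulations, either preemergence to seeds in loam-sand soil or postemergence to potted seedlings at 2–18 cm, plants were kept 13–15 d in a greenhouse. Observers then compared them with controls and assigned ratings, 0 signifying no effect and 100 complete control.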

Kochia (Kochia scoparia) = tested on: Kochia (Kochia scoparia)
Summary of the method: as §1

[2] = tested on: barnyardgrass (Echinochloa crus-galli)
Summary of the method: as §1

[3] = tested on: blackgrass (Alopecurus myosuroides)
Summary of the method: as §1

[4] = tested on: chickweed (common chickweed, Stellaria media)
Summary of the method: as §1

[5] = tested on: crabgrass, large (large crabgrass, Digitaria sanguinalis)
Summary of the method: as §1

[6] = tested on: lambsquarters (Chenopodium album)
Summary of the method: as §1

[7] = tested on: morningglory (Ipomoea coccinea)
Summary of the method: as §1

[8] = tested on: nutsedge, yellow (yellow nutsedge, Cyperus esculentus)
Summary of the method: as §1

[9] = tested on: oat, wild (wild oat, Avena fatua)
Summary of the method: as §1

[10] = tested on: oilseed rape (Brassica napus)
Summary of the method: as §1

[11] = tested on: pigweed (Amaranthus retroflexus)
Summary of the method: as §1

[12] = tested on: ragweed (common ragweed, Ambrosia elatior)
Summary of the method: as §1

[13] = tested on: velvetleaf (Abutilon theophrasti)
Summary of the method: as §1

[14] = tested on: waterhemp (common waterhemp, Amaranthus rudis)
Summary of the method: as §1

[15] = tested on: wheat (winter wheat, Triticum aestivum)
Summary of the method: as §1

## CN1CC(c2ccc(F)c(F)c2)C(C(=O)Nc2ccccc2C(F)(F)F)C1=O (stereo not shown) [Compound 641]
[1]; 31 g ai/ha
  Plant response rating, Galium: 40
[1]; 62 g ai/ha
  Plant response rating, Galium: 60
[1]; 125 g ai/ha
  Plant response rating, Galium: 60
[1]; 250 g ai/ha
  Plant response rating, Galium: 65
Kochia (Kochia scoparia); 31 g ai/ha
  Plant response rating, Kochia: 0
Kochia (Kochia scoparia); 62 g ai/ha
  Plant response rating, Kochia: 0
Kochia (Kochia scoparia); 125 g ai/ha
  Plant response rating, Kochia: 0
Kochia (Kochia scoparia); 250 g ai/ha
  Plant response rating, Kochia: 40
[2]; 31 g ai/ha
  Plant response rating, Barnyardgrass: 0
[2]; 62 g ai/ha
  Plant response rating, Barnyardgrass: 10
[2]; 125 g ai/ha
  Plant response rating, Barnyardgrass: 35
[2]; 250 g ai/ha
  Plant response rating, Barnyardgrass: 65
[3]; 31 g ai/ha
  Plant response rating, Blackgrass: 0
[3]; 62 g ai/ha
  Plant response rating, Blackgrass: 0
[3]; 125 g ai/ha
  Plant response rating, Blackgrass: 0
[3]; 250 g ai/ha
  Plant response rating, Blackgrass: 0
[4]; 31 g ai/ha
  Plant response rating, Chickweed: 0
[4]; 62 g ai/ha
  Plant response rating, Chickweed: 0
[4]; 125 g ai/ha
  Plant response rating, Chickweed: 50
[4]; 250 g ai/ha
  Plant response rating, Chickweed: 55
[5]; 31 g ai/ha
  Plant response rating, Crabgrass, Large: 10
[5]; 62 g ai/ha
  Plant response rating, Crabgrass, Large: 50
[5]; 125 g ai/ha
  Plant response rating, Crabgrass, Large: 70
[5]; 250 g ai/ha
  Plant response rating, Crabgrass, Large: 70
[6]; 31 g ai/ha
  Plant response rating, Lambsquarters: 5
[6]; 62 g ai/ha
  Plant response rating, Lambsquarters: 15
[6]; 125 g ai/ha
  Plant response rating, Lambsquarters: 5
[6]; 250 g ai/ha
  Plant response rating, Lambsquarters: 30
[7]; 31 g ai/ha
  Plant response rating, Morningglory: 0
[7]; 62 g ai/ha
  Plant response rating, Morningglory: 15
[7]; 125 g ai/ha
  Plant response rating, Morningglory: 35
[7]; 250 g ai/ha
  Plant response rating, Morningglory: 40
[8]; 31 g ai/ha
  Plant response rating, Nutsedge, Yellow: 0
[8]; 62 g ai/ha
  Plant response rating, Nutsedge, Yellow: 0
[8]; 125 g ai/ha
  Plant response rating, Nutsedge, Yellow: 0
[8]; 250 g ai/ha
  Plant response rating, Nutsedge, Yellow: 0
[9]; 31 g ai/ha
  Plant response rating, Oat, Wild: 0
[9]; 62 g ai/ha
  Plant response rating, Oat, Wild: 0
[9]; 125 g ai/ha
  Plant response rating, Oat, Wild: 0
[9]; 250 g ai/ha
  Plant response rating, Oat, Wild: 0
[10]; 31 g ai/ha
  Plant response rating, Oilseed Rape: 20
[10]; 62 g ai/ha
  Plant response rating, Oilseed Rape: 45
[10]; 125 g ai/ha
  Plant response rating, Oilseed Rape: 45
[10]; 250 g ai/ha
  Plant response rating, Oilseed Rape: 55
[11]; 31 g ai/ha
  Plant response rating, Pigweed: 0
[11]; 62 g ai/ha
  Plant response rating, Pigweed: 0
[11]; 125 g ai/ha
  Plant response rating, Pigweed: 25
[11]; 250 g ai/ha
  Plant response rating, Pigweed: 50
[12]; 31 g ai/ha
  Plant response rating, Ragweed: 0
[12]; 62 g ai/ha
  Plant response rating, Ragweed: 0
[12]; 125 g ai/ha
  Plant response rating, Ragweed: 40
[12]; 250 g ai/ha
  Plant response rating, Ragweed: 30
[13]; 31 g ai/ha
  Plant response rating, Velvetleaf: 40
[13]; 62 g ai/ha
  Plant response rating, Velvetleaf: 40
[13]; 250 g ai/ha
  Plant response rating, Velvetleaf: 50
[14]; 31 g ai/ha
  Plant response rating, Waterhemp: 10
[14]; 62 g ai/ha
  Plant response rating, Waterhemp: 10
[14]; 125 g ai/ha
  Plant response rating, Waterhemp: 25
[14]; 250 g ai/ha
  Plant response rating, Waterhemp: 30
[15]; 31 g ai/ha
  Plant response rating, Wheat: 0
[15]; 62 g ai/ha
  Plant response rating, Wheat: 0
[15]; 125 g ai/ha
  Plant response rating, Wheat: 0
[15]; 250 g ai/ha
  Plant response rating, Wheat: 0

## O=C1NCC(c2ccc3c(c2)OC(F)(F)O3)C1C(=O)Nc1cccc(F)c1F (stereo not shown) [Compound 635]
[1]; 31 g ai/ha
  Plant response rating, Galium: 50
[1]; 62 g ai/ha
  Plant response rating, Galium: 50
[1]; 125 g ai/ha
  Plant response rating, Galium: 60
[1]; 250 g ai/ha
  Plant response rating, Galium: 55
Kochia (Kochia scoparia); 31 g ai/ha
  Plant response rating, Kochia: 40
Kochia (Kochia scoparia); 62 g ai/ha
  Plant response rating, Kochia: 20
Kochia (Kochia scoparia); 125 g ai/ha
  Plant response rating, Kochia: 50
Kochia (Kochia scoparia); 250 g ai/ha
  Plant response rating, Kochia: 60
[2]; 31 g ai/ha
  Plant response rating, Barnyardgrass: 0
[2]; 62 g ai/ha
  Plant response rating, Barnyardgrass: 10
[2]; 125 g ai/ha
  Plant response rating, Barnyardgrass: 65
[2]; 250 g ai/ha
  Plant response rating, Barnyardgrass: 65
[3]; 31 g ai/ha
  Plant response rating, Blackgrass: 0
[3]; 62 g ai/ha
  Plant response rating, Blackgrass: 0
[3]; 125 g ai/ha
  Plant response rating, Blackgrass: 5
[3]; 250 g ai/ha
  Plant response rating, Blackgrass: 40
[4]; 31 g ai/ha
  Plant response rating, Chickweed: 80
[4]; 62 g ai/ha
  Plant response rating, Chickweed: 85
[4]; 125 g ai/ha
  Plant response rating, Chickweed: 85
[4]; 250 g ai/ha
  Plant response rating, Chickweed: 90
[5]; 31 g ai/ha
  Plant response rating, Crabgrass, Large: 20
[5]; 62 g ai/ha
  Plant response rating, Crabgrass, Large: 60
[5]; 125 g ai/ha
  Plant response rating, Crabgrass, Large: 50
[5]; 250 g ai/ha
  Plant response rating, Crabgrass, Large: 70
[6]; 31 g ai/ha
  Plant response rating, Lambsquarters: 75
[6]; 62 g ai/ha
  Plant response rating, Lambsquarters: 80
[6]; 125 g ai/ha
  Plant response rating, Lambsquarters: 75
[6]; 250 g ai/ha
  Plant response rating, Lambsquarters: 85
[7]; 31 g ai/ha
  Plant response rating, Morningglory: 25
[7]; 62 g ai/ha
  Plant response rating, Morningglory: 40
[7]; 125 g ai/ha
  Plant response rating, Morningglory: 45
[7]; 250 g ai/ha
  Plant response rating, Morningglory: 45
[8]; 31 g ai/ha
  Plant response rating, Nutsedge, Yellow: 0
[8]; 62 g ai/ha
  Plant response rating, Nutsedge, Yellow: 0
[8]; 125 g ai/ha
  Plant response rating, Nutsedge, Yellow: 0
[8]; 250 g ai/ha
  Plant response rating, Nutsedge, Yellow: 0
[9]; 31 g ai/ha
  Plant response rating, Oat, Wild: 0
[9]; 62 g ai/ha
  Plant response rating, Oat, Wild: 0
[9]; 125 g ai/ha
  Plant response rating, Oat, Wild: 0
[9]; 250 g ai/ha
  Plant response rating, Oat, Wild: 5
[10]; 31 g ai/ha
  Plant response rating, Oilseed Rape: 50
[10]; 62 g ai/ha
  Plant response rating, Oilseed Rape: 45
[10]; 125 g ai/ha
  Plant response rating, Oilseed Rape: 10
[10]; 250 g ai/ha
  Plant response rating, Oilseed Rape: 80
[11]; 31 g ai/ha
  Plant response rating, Pigweed: 65
[11]; 62 g ai/ha
  Plant response rating, Pigweed: 60
[11]; 125 g ai/ha
  Plant response rating, Pigweed: 75
[11]; 250 g ai/ha
  Plant response rating, Pigweed: 75
[12]; 31 g ai/ha
  Plant response rating, Ragweed: 25
[12]; 62 g ai/ha
  Plant response rating, Ragweed: 60
[12]; 125 g ai/ha
  Plant response rating, Ragweed: 70
[12]; 250 g ai/ha
  Plant response rating, Ragweed: 80
[13]; 31 g ai/ha
  Plant response rating, Velvetleaf: 0
[13]; 62 g ai/ha
  Plant response rating, Velvetleaf: 0
[13]; 125 g ai/ha
  Plant response rating, Velvetleaf: 10
[13]; 250 g ai/ha
  Plant response rating, Velvetleaf: 30
[14]; 31 g ai/ha
  Plant response rating, Waterhemp: 35
[14]; 62 g ai/ha
  Plant response rating, Waterhemp: 60
[14]; 125 g ai/ha
  Plant response rating, Waterhemp: 55
[14]; 250 g ai/ha
  Plant response rating, Waterhemp: 70
[15]; 31 g ai/ha
  Plant response rating, Wheat: 0
[15]; 62 g ai/ha
  Plant response rating, Wheat: 0
[15]; 125 g ai/ha
  Plant response rating, Wheat: 0
[15]; 250 g ai/ha
  Plant response rating, Wheat: 5
